Measurements from paper PMC3770053 (Biochemistry, 2013).

What was measured:
Experiment in all cases: stopped-flow fluorescence titration, T
Type in all cases: binding
[1] = target: Pol I(KF) (Klenow fragment of E. coli DNA polymerase I), N-His6/D424A/L744C/C907S, termed WT (Escherichia coli, UniProt P00582, C907S/D424A/L744C/Y766A)
[2] = target: Pol I(KF) (Klenow fragment of E. coli DNA polymerase I), N-His6/D424A/L744C/C907S, termed WT (Escherichia coli, UniProt P00582, C907S/D424A/L744C/Y766F)
[3] = target: Pol I(KF) (Klenow fragment of E. coli DNA polymerase I), N-His6/D424A/L744C/C907S, termed WT (Escherichia coli, UniProt P00582, C907S/D424A/L744C)
[4] = target: Pol I(KF) (Klenow fragment of E. coli DNA polymerase I), N-His6/D424A/L744C/C907S, termed WT (Escherichia coli, UniProt P00582, C907S/D424A/E710A/L744C)
[5] = target: Pol I(KF) (Klenow fragment of E. coli DNA polymerase I), N-His6/D424A/L744C/C907S, termed WT (Escherichia coli, UniProt P00582, C907S/D424A/E710Q/L744C)

SMILES: Nc1nc2c(ncn2[C@@H]2O[C@H](COP(=O)(O)OP(=O)(O)OP(=O)(O)O)[C@@H](O)[C@H]2O)c(=O)[nH]1 [rGTP]
- Kd [1]: 13 µM
- Kd [2]: 68 µM
- Kd [3]: 41 µM

SMILES: Nc1nc2c(ncn2[C@H]2C[C@H](O)[C@@H](COP(=O)(O)OP(=O)(O)OP(=O)(O)O)O2)c(=O)[nH]1 [dGTP]
- Kd [1]: 2.9 ± 2 µM
- Kd [4]: 46 ± 13 µM
- Kd [5]: 10 ± 1 µM
- Kd [2]: 5.9 ± 2.4 µM
